Experiment in all cases: KINOMEscan (ScanMAX) kinase profiling
Common to all, as to type: binding

Assay [1] addresses T1, panel of 468 kinases (Homo sapiens, UniProt P49674).
T1 construct: purchased KINOMEscan (ScanMAX) service
Particulars: CSNK1E; 1 μM; read-out: % control.

The target in assay [2] is T2, panel of 468 kinases (Homo sapiens, UniProt Q8NG66).
T2 construct: purchased KINOMEscan (ScanMAX) service
T2 sequence (Q8NG66 1-645): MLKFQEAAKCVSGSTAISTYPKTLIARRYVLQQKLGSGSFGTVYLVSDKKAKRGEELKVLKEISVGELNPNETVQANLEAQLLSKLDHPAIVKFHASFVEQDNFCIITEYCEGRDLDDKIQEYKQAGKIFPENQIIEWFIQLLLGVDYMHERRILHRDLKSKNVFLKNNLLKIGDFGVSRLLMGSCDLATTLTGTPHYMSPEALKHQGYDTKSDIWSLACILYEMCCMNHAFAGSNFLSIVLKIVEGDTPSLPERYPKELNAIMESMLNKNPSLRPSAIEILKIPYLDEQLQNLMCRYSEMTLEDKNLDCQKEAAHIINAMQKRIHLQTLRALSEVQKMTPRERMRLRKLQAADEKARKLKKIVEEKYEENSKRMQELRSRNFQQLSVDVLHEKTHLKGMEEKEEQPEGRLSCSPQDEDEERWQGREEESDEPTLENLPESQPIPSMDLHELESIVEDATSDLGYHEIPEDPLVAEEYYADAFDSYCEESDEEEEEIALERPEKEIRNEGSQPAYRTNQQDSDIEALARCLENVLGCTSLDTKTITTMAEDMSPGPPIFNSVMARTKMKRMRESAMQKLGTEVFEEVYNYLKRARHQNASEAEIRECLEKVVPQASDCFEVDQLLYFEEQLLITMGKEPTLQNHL
The conditions noted are these: NEK11; 1 μM; read-out: % control.

For assay [3], the target named is T3, panel of 468 kinases (Homo sapiens, UniProt P51957).
T3 construct: purchased KINOMEscan (ScanMAX) service
T3 sequence (P51957 whole entry): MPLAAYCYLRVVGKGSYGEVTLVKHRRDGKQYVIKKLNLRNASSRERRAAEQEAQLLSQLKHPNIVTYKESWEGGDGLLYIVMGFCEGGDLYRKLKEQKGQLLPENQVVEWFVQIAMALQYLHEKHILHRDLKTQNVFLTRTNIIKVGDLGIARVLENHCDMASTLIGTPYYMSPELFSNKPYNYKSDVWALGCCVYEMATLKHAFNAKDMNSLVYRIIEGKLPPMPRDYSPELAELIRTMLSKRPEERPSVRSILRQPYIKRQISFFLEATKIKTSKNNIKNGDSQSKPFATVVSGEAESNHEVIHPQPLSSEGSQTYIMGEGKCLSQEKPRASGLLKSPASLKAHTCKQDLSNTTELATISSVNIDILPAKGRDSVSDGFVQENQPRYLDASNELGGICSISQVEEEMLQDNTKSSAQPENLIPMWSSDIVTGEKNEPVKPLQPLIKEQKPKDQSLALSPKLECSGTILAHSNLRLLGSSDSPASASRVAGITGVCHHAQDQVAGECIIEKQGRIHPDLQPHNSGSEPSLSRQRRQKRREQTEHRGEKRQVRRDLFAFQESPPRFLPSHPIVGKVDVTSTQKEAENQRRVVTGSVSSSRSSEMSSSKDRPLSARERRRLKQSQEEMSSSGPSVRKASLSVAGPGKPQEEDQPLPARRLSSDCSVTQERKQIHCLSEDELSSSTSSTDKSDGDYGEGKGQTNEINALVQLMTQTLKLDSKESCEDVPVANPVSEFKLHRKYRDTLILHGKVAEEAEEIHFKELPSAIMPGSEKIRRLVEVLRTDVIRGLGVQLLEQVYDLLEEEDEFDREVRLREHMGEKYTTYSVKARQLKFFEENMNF
Particulars: NEK4; 1 μM; read-out: % control.

In assay [4] the target is T4, panel of 468 kinases (Homo sapiens, UniProt Q9Y2I7).
T4 construct: purchased KINOMEscan (ScanMAX) service
T4 sequence (Q9Y2I7 whole entry): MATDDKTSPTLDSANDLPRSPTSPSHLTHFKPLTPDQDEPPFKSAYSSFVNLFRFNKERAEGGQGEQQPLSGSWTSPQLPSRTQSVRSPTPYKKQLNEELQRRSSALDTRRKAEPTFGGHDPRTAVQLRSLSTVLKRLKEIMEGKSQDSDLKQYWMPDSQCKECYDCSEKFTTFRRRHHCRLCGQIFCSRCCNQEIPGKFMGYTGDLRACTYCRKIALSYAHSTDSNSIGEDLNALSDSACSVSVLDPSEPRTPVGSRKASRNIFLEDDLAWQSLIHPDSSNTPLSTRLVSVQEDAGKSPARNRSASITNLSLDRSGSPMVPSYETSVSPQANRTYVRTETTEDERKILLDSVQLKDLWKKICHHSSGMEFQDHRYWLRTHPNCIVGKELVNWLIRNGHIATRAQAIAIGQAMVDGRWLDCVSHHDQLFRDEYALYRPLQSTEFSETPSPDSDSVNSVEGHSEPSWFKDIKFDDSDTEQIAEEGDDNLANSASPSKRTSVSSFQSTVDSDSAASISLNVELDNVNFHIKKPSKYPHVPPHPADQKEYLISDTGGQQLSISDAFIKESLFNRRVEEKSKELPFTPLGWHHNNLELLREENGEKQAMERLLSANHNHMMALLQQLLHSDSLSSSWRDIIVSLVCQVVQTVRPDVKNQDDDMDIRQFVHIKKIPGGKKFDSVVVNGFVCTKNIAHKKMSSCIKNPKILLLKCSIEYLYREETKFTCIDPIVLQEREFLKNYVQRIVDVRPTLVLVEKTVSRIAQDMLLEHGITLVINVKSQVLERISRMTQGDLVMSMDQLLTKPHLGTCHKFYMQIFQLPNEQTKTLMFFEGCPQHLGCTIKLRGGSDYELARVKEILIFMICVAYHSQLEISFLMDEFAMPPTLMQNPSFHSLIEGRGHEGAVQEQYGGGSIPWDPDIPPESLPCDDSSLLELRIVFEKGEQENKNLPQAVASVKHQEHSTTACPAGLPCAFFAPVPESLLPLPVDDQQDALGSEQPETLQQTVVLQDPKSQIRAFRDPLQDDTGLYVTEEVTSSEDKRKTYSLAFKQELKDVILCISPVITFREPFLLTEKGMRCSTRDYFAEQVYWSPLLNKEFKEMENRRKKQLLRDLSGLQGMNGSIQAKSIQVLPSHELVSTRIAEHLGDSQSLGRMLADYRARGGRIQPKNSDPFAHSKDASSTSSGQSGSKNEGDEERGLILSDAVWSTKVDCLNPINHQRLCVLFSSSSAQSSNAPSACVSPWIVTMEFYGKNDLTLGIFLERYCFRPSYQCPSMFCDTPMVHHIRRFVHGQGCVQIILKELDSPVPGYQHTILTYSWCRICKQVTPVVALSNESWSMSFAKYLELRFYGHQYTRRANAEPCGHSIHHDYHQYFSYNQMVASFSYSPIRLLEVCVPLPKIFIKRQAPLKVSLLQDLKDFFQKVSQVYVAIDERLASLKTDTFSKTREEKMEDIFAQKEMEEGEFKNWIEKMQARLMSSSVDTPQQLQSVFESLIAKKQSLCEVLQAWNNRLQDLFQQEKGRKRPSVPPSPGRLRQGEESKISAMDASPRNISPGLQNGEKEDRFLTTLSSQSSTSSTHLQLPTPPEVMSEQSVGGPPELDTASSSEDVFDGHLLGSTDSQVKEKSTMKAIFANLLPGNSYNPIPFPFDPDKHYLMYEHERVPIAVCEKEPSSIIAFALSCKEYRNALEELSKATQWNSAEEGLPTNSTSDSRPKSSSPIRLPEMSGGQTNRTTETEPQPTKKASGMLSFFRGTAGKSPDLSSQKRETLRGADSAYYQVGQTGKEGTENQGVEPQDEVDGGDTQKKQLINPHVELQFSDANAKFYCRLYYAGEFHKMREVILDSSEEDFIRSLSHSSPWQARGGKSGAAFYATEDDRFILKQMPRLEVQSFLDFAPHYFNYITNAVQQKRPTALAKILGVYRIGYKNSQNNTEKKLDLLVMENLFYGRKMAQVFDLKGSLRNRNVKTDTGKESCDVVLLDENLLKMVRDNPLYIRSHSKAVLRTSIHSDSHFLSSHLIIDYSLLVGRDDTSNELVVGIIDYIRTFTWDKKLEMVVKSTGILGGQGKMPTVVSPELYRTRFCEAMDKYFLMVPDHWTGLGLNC
Particulars: PIKFYVE; 1 μM; read-out: % control.

The target in assay [5] is T5, panel of 468 kinases (Homo sapiens, UniProt P68400).
T5 construct: purchased KINOMEscan (ScanMAX) service
T5 sequence (P68400 whole entry): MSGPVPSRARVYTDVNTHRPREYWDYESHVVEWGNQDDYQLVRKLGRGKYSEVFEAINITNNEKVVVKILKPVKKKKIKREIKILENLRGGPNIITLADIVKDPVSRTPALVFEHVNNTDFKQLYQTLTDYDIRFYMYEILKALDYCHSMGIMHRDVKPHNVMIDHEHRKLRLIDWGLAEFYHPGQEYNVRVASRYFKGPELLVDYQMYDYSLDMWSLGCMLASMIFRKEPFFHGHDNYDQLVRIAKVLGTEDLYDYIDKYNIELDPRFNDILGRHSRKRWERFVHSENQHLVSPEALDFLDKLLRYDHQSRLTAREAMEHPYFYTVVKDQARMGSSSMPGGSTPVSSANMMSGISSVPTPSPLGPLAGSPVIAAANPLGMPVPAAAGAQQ
The conditions noted are these: CSNK2A1; 1 μM; read-out: % control.

Assay [6] has as its target T6, panel of 468 kinases (Homo sapiens, UniProt Q9BZL6).
T6 construct: purchased KINOMEscan (ScanMAX) service
T6 sequence (Q9BZL6 1-878): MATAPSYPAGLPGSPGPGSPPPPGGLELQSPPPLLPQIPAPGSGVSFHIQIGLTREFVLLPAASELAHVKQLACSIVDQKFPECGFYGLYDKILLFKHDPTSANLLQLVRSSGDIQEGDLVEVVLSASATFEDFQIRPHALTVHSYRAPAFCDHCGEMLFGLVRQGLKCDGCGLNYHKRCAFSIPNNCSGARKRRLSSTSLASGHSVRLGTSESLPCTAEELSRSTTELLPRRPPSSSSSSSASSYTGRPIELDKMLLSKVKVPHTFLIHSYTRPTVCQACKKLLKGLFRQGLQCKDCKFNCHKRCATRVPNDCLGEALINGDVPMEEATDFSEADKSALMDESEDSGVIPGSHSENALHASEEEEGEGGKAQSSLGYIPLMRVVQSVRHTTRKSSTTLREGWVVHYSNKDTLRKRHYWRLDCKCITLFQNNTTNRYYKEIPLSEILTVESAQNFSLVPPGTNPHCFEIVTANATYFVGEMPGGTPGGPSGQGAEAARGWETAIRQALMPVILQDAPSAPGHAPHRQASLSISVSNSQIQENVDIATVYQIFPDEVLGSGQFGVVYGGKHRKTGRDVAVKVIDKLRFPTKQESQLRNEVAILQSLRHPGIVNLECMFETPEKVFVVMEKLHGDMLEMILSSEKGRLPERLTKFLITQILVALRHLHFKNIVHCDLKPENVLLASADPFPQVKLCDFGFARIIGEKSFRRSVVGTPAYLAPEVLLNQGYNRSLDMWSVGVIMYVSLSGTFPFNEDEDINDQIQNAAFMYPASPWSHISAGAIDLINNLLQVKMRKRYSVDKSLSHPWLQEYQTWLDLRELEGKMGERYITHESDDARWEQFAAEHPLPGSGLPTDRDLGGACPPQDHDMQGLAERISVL
The conditions noted are these: PRKD2; 1 μM; read-out: % control.

In assay [7] the target is T7, panel of 468 kinases (Homo sapiens, UniProt P53779).
T7 construct: purchased KINOMEscan (ScanMAX) service
T7 sequence (P53779 whole entry): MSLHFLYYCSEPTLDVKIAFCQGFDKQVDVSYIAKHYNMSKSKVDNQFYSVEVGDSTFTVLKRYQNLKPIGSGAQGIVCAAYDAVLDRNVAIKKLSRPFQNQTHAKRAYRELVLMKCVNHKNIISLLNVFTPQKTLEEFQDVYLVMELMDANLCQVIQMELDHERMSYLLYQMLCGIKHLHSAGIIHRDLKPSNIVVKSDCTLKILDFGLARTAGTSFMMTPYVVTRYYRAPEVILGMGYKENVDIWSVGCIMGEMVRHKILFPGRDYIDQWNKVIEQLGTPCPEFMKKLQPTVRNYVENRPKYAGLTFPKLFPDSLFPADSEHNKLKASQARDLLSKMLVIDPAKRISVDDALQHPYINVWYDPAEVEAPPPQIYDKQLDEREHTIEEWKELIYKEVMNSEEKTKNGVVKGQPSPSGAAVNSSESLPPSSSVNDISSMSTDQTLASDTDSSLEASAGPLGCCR
Particulars: JNK3; 1 μM; read-out: % control.

Assay [8] has as its target T8, panel of 468 kinases (Homo sapiens, UniProt P08581).
T8 construct: purchased KINOMEscan (ScanMAX) service
Particulars: MET; 1 μM; read-out: % control.

This note sets out measurements from patent publication US12479847B2 (DANA-FARBER CANCER INSTITUTE, INC., priority 2019, dated 2025).

T1 sequence (P49674 whole entry): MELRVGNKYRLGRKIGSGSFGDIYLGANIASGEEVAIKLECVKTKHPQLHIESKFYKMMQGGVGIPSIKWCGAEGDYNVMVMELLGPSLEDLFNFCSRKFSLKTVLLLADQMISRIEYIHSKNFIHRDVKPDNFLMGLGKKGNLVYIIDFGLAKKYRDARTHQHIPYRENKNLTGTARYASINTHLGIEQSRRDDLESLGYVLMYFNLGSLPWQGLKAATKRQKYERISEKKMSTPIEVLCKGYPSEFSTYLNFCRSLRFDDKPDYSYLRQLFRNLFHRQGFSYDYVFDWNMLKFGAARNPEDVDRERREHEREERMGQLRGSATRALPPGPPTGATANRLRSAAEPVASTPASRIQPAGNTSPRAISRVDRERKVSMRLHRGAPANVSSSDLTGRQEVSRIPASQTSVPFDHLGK

On to `CNc1nc(Nc2ccc(S(=O)(=O)N3CCC(N4CCOCC4)CC3)cc2OC)nc2[nH]cc(Cl)c12` [Compound 12, 5-chloro-N2-(2-methoxy-4-((4-morpholinopiperidin-1-yl)sulfonyl)phenyl)-N4-methyl-7H-pyrrolo[2,3-d]pyrimidine-2,4-diamine], for which the remaining binding at 1 µM on panel of 468 kinases [1] amounted to 18%; on panel of 468 kinases [2], 96%; at panel of 468 kinases [3] it was 100%; at panel of 468 kinases [4], 64%; on panel of 468 kinases [5], 63%; at panel of 468 kinases [6], 37%. In addition, the values for the remaining binding at 1 µM on panel of 468 kinases [7] and at panel of 468 kinases [8] were 16% and 100%, respectively.
With `CNc1nc(Nc2ccc(C(=O)N3CCC(N4CCOCC4)CC3)c3c2OCO3)nc2[nH]cc(Cl)c12` [Compound 75, (7-((5-chloro-4-(methylamino)-7H-pyrrolo[2,3-d]pyrimidin-2-yl)amino)benzo[d][1,3]dioxol-4-yl)(4-morpholinopiperidin-1-yl)methanone], the remaining binding at 1 µM on panel of 468 kinases [1] was determined as 30%; at panel of 468 kinases [2], 100%; on panel of 468 kinases [3] it was 100%; at panel of 468 kinases [4], 72%; on panel of 468 kinases [5] it was 24%; on panel of 468 kinases [6] it was 2.2%. Further, the results for the remaining binding at 1 µM on panel of 468 kinases [7] and at panel of 468 kinases [8] were 0.25% and 100%, respectively.
As to `CNc1nc(Nc2ccc(P3(=O)CCN(C4CCOCC4)CC3)cc2OC)nc2[nH]cc(Cl)c12` [Compound 77, 4-(4-((5-chloro-4-(methylamino)-7H-pyrrolo[2,3-d]pyrimidin-2-yl)amino)-3-methoxyphenyl)-1-(tetrahydro-2H-pyran-4-yl)-1,4-azaphosphinane 4-oxide], the remaining binding at 1 µM at panel of 468 kinases [1] was found to be 15%; on panel of 468 kinases [2], 100%; on panel of 468 kinases [3], 100%; on panel of 468 kinases [4] it was 70%; at panel of 468 kinases [5], 59%; on panel of 468 kinases [6], 14%. For the same compound, the remaining binding at 1 µM on panel of 468 kinases [7] was determined as 0.9%; at panel of 468 kinases [8], 100%.
